Columns and labels:
Assay in all cases: In vitro antifungal activity, microbroth dilution MIC
Assay type in all cases: cell-based
Conditions in all cases: RPMI-1640, 35° C., 4 to 48 hours, no growth observed
[1] = system: Aspergillus furnigatus B. 19119
How it was run: (§1)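 Broth microdilution adapted from NCCLS M27, in RPMI-1640 with 0.165 M MOPS, pH 7.0. Yeast or mould inoculum at 2×10^3 CFU/ml was mixed 1:1 with DMSO-derived compound solutions (200 to 0.10 μg/ml before mixing) and incubated at 35 °C for 4 to 48 h. MIC was the concentration showing no growth.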

[2] = system: Aspergillus niger A. 16404
How it was run: as §1

[3] = system: Candida albicans A. 10231
How it was run: as §1

Candida albicans C1-2 = system: Candida albicans C1-2
How it was run: as §1

[4] = system: Candida albicans IFO. 1385
How it was run: as §1

Candida krusei K. 11655 = system: Candida krusei K. 11655
How it was run: as §1

[5] = system: Candida parapsitosis A. 7330
How it was run: as §1

[6] = system: Candida pseudotropicalis K. 11658
How it was run: as §1

[7] = system: Candida tropicalis A. 13803
How it was run: as §1

[8] = system: Cryptococcus neoformans A. 34144
How it was run: as §1

[9] = system: Cryptococcus neoformans B. 42419
How it was run: as §1

[10] = system: Cryptococcus neoformans IFM. 40092
How it was run: as §1

[11] = system: Torulopsis glabrata B. 16205
How it was run: as §1

[12] = system: Trichophyton mentagrophytes A. 9129
How it was run: as §1

[13] = system: Trichophyton mentagrophytes B. 32663
How it was run: as §1

SMILES	Minimal inhibitory concentration(MIC), A furnigatus B. 19119 [1]	Minimal inhibitory concentration(MIC), A. niger A. 16404 [2]	Minimal inhibitory concentration(MIC), C. albicans A. 10231 [3]	Minimal inhibitory concentration(MIC), C. albicans C1-2 (Candida albicans C1-2)	Minimal inhibitory concentration(MIC), C. albicans IFO. 1385 [4]	Minimal inhibitory concentration(MIC), C. krusei K. 11655 (Candida krusei K. 11655)	Minimal inhibitory concentration(MIC), C. parapsitosis A. 7330 [5]	Minimal inhibitory concentration(MIC), C. pseudotropicalis K. 11658 [6]	Minimal inhibitory concentration(MIC), C. tropicalis A. 13803 [7]	Minimal inhibitory concentration(MIC), Cry. neoformans A. 34144 [8]	Minimal inhibitory concentration(MIC), Cry. neoformans B. 42419 [9]	Minimal inhibitory concentration(MIC), Cry. neoformans IFM. 40092 [10]	Minimal inhibitory concentration(MIC), T. glabrata B. 16205 [11]	Minimal inhibitory concentration(MIC), T. mentagrophytes A. 9129 [12]	Minimal inhibitory concentration(MIC), T. mentagrophytes B. 32663 [13]
Cc1ccc(C(=C(F)OCC2COC(Cn3cncn3)(c3ccc(Cl)cc3Cl)O2)C(F)(F)F)cc1C (mixture of isomers) [Ex. 82]	>100 µg/mL	>100 µg/mL	>100 µg/mL	>100 µg/mL	12.5 µg/mL	>100 µg/mL	>100 µg/mL	>100 µg/mL	>100 µg/mL	3.13 µg/mL	3.13 µg/mL	0.39 µg/mL	>100 µg/mL	>100 µg/mL	>100 µg/mL
Cc1cc(C)cc(C(=C(F)OCC2COC(Cn3cncn3)(c3ccc(Cl)cc3Cl)O2)C(F)(F)F)c1 (mixture of isomers) [Ex. 83]	>100 µg/mL	>100 µg/mL	>100 µg/mL	>100 µg/mL	>100 µg/mL	>100 µg/mL	>100 µg/mL	>100 µg/mL	>100 µg/mL	>100 µg/mL	>100 µg/mL	1.56 µg/mL	>100 µg/mL	>100 µg/mL	>100 µg/mL
COc1ccc(C(=C(F)OCC2COC(Cn3cncn3)(c3ccc(Cl)cc3Cl)O2)C(F)(F)F)cc1 (mixture of isomers) [Ex. 84]	>100 µg/mL	>100 µg/mL	>100 µg/mL	100 µg/mL	6.25 µg/mL	>100 µg/mL	>100 µg/mL	>100 µg/mL	>100 µg/mL	1.56 µg/mL	1.56 µg/mL	0.78 µg/mL	>100 µg/mL	>100 µg/mL	>100 µg/mL
CCOc1ccc(C(=C(F)OCC2COC(Cn3cncn3)(c3ccc(Cl)cc3Cl)O2)C(F)(F)F)cc1 (mixture of isomers) [Ex. 85]	>100 µg/mL	>100 µg/mL	100 µg/mL	100 µg/mL	25.0 µg/mL	>100 µg/mL	>100 µg/mL	>100 µg/mL	>100 µg/mL	1.56 µg/mL	1.56 µg/mL	0.39 µg/mL	>100 µg/mL	>100 µg/mL	>100 µg/mL
FC(OCC1COC(Cn2cncn2)(c2ccc(Cl)cc2Cl)O1)=C(c1ccc(Cl)cc1)C(F)(F)F (mixture of isomers) [Ex. 86]	>100 µg/mL	>100 µg/mL	100 µg/mL	100 µg/mL	12.5 µg/mL	>100 µg/mL	>100 µg/mL	>100 µg/mL	>100 µg/mL	1.56 µg/mL	1.56 µg/mL	0.78 µg/mL	>100 µg/mL	>100 µg/mL	>100 µg/mL
FC(OCC1COC(Cn2cncn2)(c2ccc(Cl)cc2Cl)O1)=C(c1ccc(F)cc1)C(F)(F)F (mixture of isomers) [Ex. 87]	>100 µg/mL	>100 µg/mL	>100 µg/mL	>100 µg/mL	6.25 µg/mL	>100 µg/mL	>100 µg/mL	>100 µg/mL	>100 µg/mL	1.56 µg/mL	1.56 µg/mL	0.78 µg/mL	>100 µg/mL	>100 µg/mL	>100 µg/mL
